Test results published in patent publication US20250275995A1, “NICOTINAMIDE RIBOSIDE DOSAGE REGIMEN FOR TREATING PARKINSON'S DISEASE” (VESTLANDETS INNOVASJONSSELSKAP AS (VIS), priority 2022, published 2025).

Legend:
blood NAD^+ levels = test: NAD-brain pharmacokinetic study: whole blood NAD+ response; assay type: in vivo, human
Experimental: The NAD-brain study performs a parallel assessment of NAD replenishment therapy pharmacokinetics in the blood and brain of healthy human subjects and subjects with Parkinson's disease (PD). A total of 10 healthy individuals (5 men and 5 women) and 10 individuals with PD (5 men and 5 women) undergo repeated blood sampling and 31P-MRS brain scans during two 20-day periods, each of which starts with 8 days of daily intake of NR 600 mg×2, or NMN 600 mg×2. The two 20-day period is 14 days apart to allow for washout of the previous compound. Blood is analyzed for NR and NAD-metabolites using HPLC-MS. By this approach, we measured the simultaneous change in NAD-metabolism overtime in blood and brain and establish blood and brain pharmacokinetics for NAD replenishment therapy in humans.
NR (Niagen®, Chromadex) at a dose of 600 mg×2 daily). NMN (Restorin®, from Seragon Pharmaceutics, or MIB-626 from Metro International Biotech) at a dose of 600 mg×2 daily.
• At screening, participants are assessed for eligibility, inclusion/exclusion criteria, medical history and concomitant medication is recorded, and informed consent signed. • The NAD-brain study performs a parallel assessment of NAD replenishment therapy pharmacokinetics in the blood and brain of healthy human subjects and subjects with Parkinson's disease (PD). Healthy individuals and individuals with PD undergo repeated blood sampling and 31P-MRS brain scans during two 20-day periods, each of which starts with 8 days of daily intake of NR 600 mg×2, or NMN 600 mg×2 (Table 10). • For each 20-day period the testing (i.e., scanning and blood draw) frequency is shown in Table 10, below. The two 20-day periods are 14 days apart to allow for washout of the previous compound.
Blood is analyzed for NR and NAD-metabolites using HPLC-MS metabolomics. Snap-frozen whole blood is used for the analysis of NAD^+. Blood is drawn from the participant in EDTA tube (VACUETTE® TUBE 2 ml K2E K2EDTA). The EDTA tube is gently inverted at least 10 times without shaking; 8×200 μl of blood from the EDTA tube is aliquoted into 8×0.5 ml micro tubes; these are closed, and all the micro tubes are immerse simultaneously in liquid nitrogen within 2 min from when blood has started flowing into the EDTA tube; then transferred frozen to −80° C. freezer for storage; stored at −80C in freezer-compatible cardboard or plastic storage boxes; and shipped on dry ice.
This is a pharmacokinetic (PK) study where 6 healthy individuals (3 male and 3 female): • 1) Received NR 1200 mg daily (600 mg×2) for 8 days, followed by an additional 11 days follow up, while undergoing serial blood and brain NAD-measurement. • 2) Received NMN 1200 mg daily (600 mg×2) for 8 days, followed by an additional 11 days follow up, while undergoing serial blood and brain NAD-measurement.
The individuals were mixed, so that in stage-1 three individuals received NR and three individuals received NMN, then in stage-2 they switched (Cross-over design). There were almost three weeks (20 days) of washout between the last dose of the first compound, and before the first dose of the second compounds.

cerebral NAD levels = test: NADPARK: cerebral NAD levels by 31P-MRS; assay type: in vivo, human
Experimental: A-C: 31P-MRS was performed at baseline (v1) and after 30 days of treatment (v2). A: exemplary data from one subject showing voxel position. Spectra were acquired for each grid position. B (top): average processed spectra from multiple voxels (black) and the model fit (red). B (bottom): the model fit is composed of the convolution of all spectral contributions of a simulated dataset fitted to the experimental data. […] PCr: phosphocreatine. C: comparison of cerebral NAD levels in the placebo (PL) and NR groups at baseline (v1) and visit-2 (v2). […] Individual subjects are indicated by dots. Connecting lines show the change between v1 and v2. The black points and lines show the mean of each group. […] D: FDG-PET data from all subjects in the NR-group, showing the mean NR-Related Pattern (NRRP, top panel), PD-related pattern (PRDP, middle panel), and the overlap of the two (bottom panel). NR partially ameliorates the striatal and thalamic hypermetabolism of PD. E: Between visit changes showing increased NRRP expression in the NR versus the placebo group. […]
NR is well-tolerated. […] While a significant NR-induced increase in cerebral NAD levels was detected at the group level, this effect was not uniform at the individual level.
Cerebral NAD levels, such as NAD/α-ATP-α molar ratios, can be calculated by using ^31P spectroscopy data from magnetic resonance imaging and spectroscopy (MRI/S) e.g., as shown in FIG. 1B. […] For instance, an anatomical T1-weighted image with the following sequence parameters can be acquired to aid positioning of the ^31P-imaging slab: MPRAGE 3D T1-weighted sagittal volume, TE/TR/TI=2.26 ms/2.4 s/900 ms, acquisition matrix=256×256×192, FOV=256×256×192 mm3, 200 Hz/px readout bandwidth, flip angle=8 degrees and total acquisition duration of 5.6 minutes. ^31P spectroscopy data can then be acquired using a 3D chemical shift imaging (CSI) FID sequence with WALTZ4 1H decoupling and continuous wave nuclear Overhauser effect (NOE) enhancement (Peeters et al., NMR Biomed. 2019; 34: e4169). […]

Structure (SMILES): NC(=O)c1ccc[n+]([C@@H]2O[C@H](CO)[C@@H](O)[C@H]2O)c1 [NR, nicotinamide riboside]
- blood NAD^+ levels (blood NAD^+ levels; 1200 mg daily (600 mg×2) for 8 days, 6 healthy individuals): increased in all individuals
- blood NAD^+ response, NR compared with NMN (blood NAD^+ levels; 1200 mg daily (600 mg×2) for 8 days, cross-over): stronger than the NMN response
- day of maximal NAD levels in the blood (blood NAD^+ levels; 1200 mg daily for 8 days, last dose morning of day 8): 9 days
- time to reach a steady heightened state of NAD-metabolism in blood and brain (blood NAD^+ levels; NR supplementation): more than 8 days
- plateau of blood NAD^+ levels (blood NAD^+ levels; after 8 days of precursor intake, 1200 mg daily): did not plateau after 8 days
- increase in cerebral NAD-levels (cerebral NAD levels; 1000 mg NR, treatment group, mean (SD=20%)): 38%
- patients with no evidence of cerebral NAD response (cerebral NAD levels; NR 1000 mg per day, 30 days): three
- change in cerebral NAD levels (31P-MRS) (cerebral NAD levels; NR 1000 mg per day, baseline vs 30 days, NR group): highly significant (paired t-test: P=0.016) increase in cerebral NAD levels
